Data on 3 substances can be found in US20130196903A1 (priority 2010, published 2013).

Experiment [1] concerns dengue virus. As to conditions: dengue virus infectivity; cited from earlier work.
Experiment [2] concerns wild-type (WT) strain of Measles Virus (MV). Nature of the experiment: Antiviral activity against a wild-type strain of Measles Virus. It counts as cell-based. The procedure:
The antiviral activity of a cholesterol-derivatized inhibitors derived from the sequence of Human Parainfluenza virus type 3 (HPIV3) was tested against a wild-type (WT) strain of Measles Virus (MV).

For the substance “AWDFGSLGGVFTSIGKALHQVF (Dengue virus 2 (DV2)) [DV2^419-440]”, the antiviral activity entry in experiment [1] is recorded as “very weak antiviral activity”.

Turning to “Ac-VALDPIDISIVLNKAKSDLEESKEWIRRSNGKLDSIGSGSG-C(PEG4-Chol) (Ac-VALDPIDISIVLNKAKSDLEESKEWIRRSNGKLDSIGSGSG-{C(PEG4-cholesterol)})”, in experiment [2], the “fold more potent than the underivatized peptide” value is recorded as 5 fold.

Take “[(Ac-VALDPIDISIVLNKAKSDLEESKEWIRRSNGKLDSIGSGSG-C(Mal-PEG4)]2-Chol”: in experiment [2], the “fold more potent than the underivatized peptide” value was 250 fold.
